Measurements taken from publication PMC8842277, “Highly Antiproliferative Latonduine and Indolo[2,3-c]quinoline Derivatives: Complex Formation with Copper(II) Markedly Changes the Kinase Inhibitory Profile” (Journal of Medicinal Chemistry, 2022).
Where “and” joins values, the source holds several entries; their conditions need not be identical. Equal entries are not always repeated. Where two headings read alike, the source gives them in different places. One block for each compound: values may come before it.

Key:
[1] = Proton dissociation constants by UV–vis titration; format: physicochemical; settings: 30–70% (w/w) DMSO–water, 298 K, I = 0.10 M (KCl); for pKa: DMSO:water 30:70 (w/w) solvent mixture
Protocol: The protonation processes of HL^1nm and its morpholine counterpart HL^1 (Chart 3) and the solution stability of their copper(II) complexes (1nm and 1) were characterized by UV–vis spectrophotometry. […] Based on the characteristic changes in the UV–vis spectra for HL^1nm in the pH range 2–6 (Figure 3a), two relatively well-separated proton dissociation processes were observed and their pKa values were determined (Table 1).
(§1) An Agilent Carry 8454 diode array spectrophotometer was used to record the UV–visible (UV–vis) spectra in the interval 200–800 nm. The path length was 2 or 0.5 cm. Spectrophotometric titrations were performed on samples containing the proligands HL^1, HL^1nm, or their copper(II) complexes (1 and 1nm; see Chart 2) by a KOH solution in the presence of 0.1 M KCl in a DMSO:water 30:70 (w/w) mixture as a solvent at 25.0 ± 0.1 °C in the pH range from 2 to 11. […] An Orion 710A pH meter equipped with a Metrohm combined electrode (type 6.0234.100) and a Metrohm 665 Dosimat burette were used for the pH measurements and titrations. […] The average water ionization constant (pKw) is 14.52 ± 0.05, which corresponds well to the literature data.[103] Argon was passed over the solutions during the titrations. Proton dissociation constants (pKa) of the ligand, overall stability constants (log β) of the copper(II) complexes, and the individual spectra of the various species present in the solution were calculated by the computer program PSEQUAD.[104] β (MpLqHr) is defined for the general equilibrium pM + qL + rH MpLqHr as β (MpLqHr) = [MpLqHr]/[M]^p[L]^q[H]^r where M denotes the copper(II) ion and L the completely deprotonated ligand. The calculations were always made from the experimental titration data measured in the absence of any precipitate in the solution.

[2] = system: doxorubicin-sensitive Colo205 human colon adenocarcinoma cells; assay: MTT antiproliferative assay; format: cell-based; settings: for selectivity factor (SF) Colo205: IC50 MRC-5/IC50 Colo205; for IC50: MTT, 72 h
Protocol: (§2) The in vitro antiproliferative activity of the compounds was tested in doxorubicin-sensitive Colo205 and multidrug-resistant Colo320 human colon adenocarcinoma cell lines as well as in normal human embryonal lung fibroblast cells (MRC-5) by MTT assay.
(§3) Human colonic adenocarcinoma cell lines Colo 205 doxorubicin-sensitive (ATCC-CCL-222) and Colo 320/MDR-LRP multidrug resistant over-expressing ABCB1 (MDR1)-LRP (ATCC-CCL-220.1) were purchased from LGC Promochem, Teddington, UK. The cells were cultured in an RPMI 1640 medium supplemented with 10% heat-inactivated fetal bovine serum, 2 mM L-glutamine, 1 mM Na-pyruvate, and 10 mM HEPES. The semi-adherent human colon cancer cells were detached with Trypsin-Versene (EDTA) solution for 5 min at 37 °C. An MRC-5 human embryonal lung fibroblast cell line (ATCC CCL-171) was purchased from LGC Promochem, Teddington, UK. The cells were cultured in Eagle’s minimal essential medium (EMEM, containing 4.5 g L^–1 glucose) supplemented with a non-essential amino acid mixture, a selection of vitamins, and 10% heat-inactivated fetal bovine serum. The HCT-116 colon carcinoma cells and isogenic p53-knock-out subline were a gift of Prof. Bert Vogelstein from The Johns Hopkins Oncology Center. Cells were cultured in McCoy’s 5A medium supplemented with 10% heat-inactivated fetal bovine serum and 4 mM L-glutamine. All cell lines were incubated at 37 °C, in a 5% CO2, 95% air atmosphere.
(§4) MRC-5 non-cancerous human embryonic lung fibroblast and human colonic adeno-carcinoma cell lines (doxorubicin-sensitive Colo 205 and multidrug resistant Colo 320 colonic adenocarcinoma cells) were used to determine the effect of compounds on cell growth. The effects of increasing concentrations of compounds on cell growth were tested in 96-well flat-bottomed microtiter plates. The compounds were dissolved in DMSO and stock solutions of 10 mM were prepared. These were further diluted in the appropriate cell culture medium by twofold serial dilution starting from 100 or 10 μM for the compounds. The adherent human embryonal lung fibroblast cells were cultured in 96-well flat-bottomed microtiter plates using EMEM supplemented with 10% heat-inactivated fetal bovine serum. The density of the cells was adjusted to 1 × 10^4 cells in 100 μL per well, the cells were seeded for 24 h at 37 °C, 5% CO2, then the medium was removed from the plates containing the cells, and the dilutions of compounds previously made in a separate plate were added to the cells in 200 μL. In the case of the colonic adenocarcinoma cells, the twofold serial dilutions of compounds were prepared in 100 μL of RPMI 1640, horizontally. The semi-adherent colonic adenocarcinoma cells were treated with Trypsin-Versene (EDTA) solution. They were adjusted to a density of 1 × 10^4 cells in 100 μL of RPMI 1640 medium and were added to each well, with the exception of the medium control wells. The final volume of the wells containing compounds and cells was 200 μL. The culture plates were incubated at 37 °C for 72 h; at the end of the incubation period, 20 μL of MTT (thiazolyl blue tetrazolium bromide, Sigma) solution (from a stock solution of 5 mg mL^–1) was added to each well. After incubation at 37 °C for 4 h, 100 μL of sodium dodecyl sulfate (SDS) (Sigma) solution (10% in 0.01 M HCI) was added to each well and the plates were further incubated at 37 °C overnight. Cell growth was determined by measuring the optical density (OD) at 540/630 nm with a Multiscan EX ELISA reader (Thermo Labsystems, Cheshire, WA, USA). […] Curves were fitted by GraphPad Prism software[57] using the sigmoidal dose–response model (comparing variable and fixed slopes). The IC50 values were obtained from at least three independent experiments. Tests in adherent HCT-116 colon carcinoma cells and an isogenic p53-knock-out subline thereof were performed in a similar manner, with 1.5 × 10^3 cells seeded in 100 μL of McCoy’s 5A medium (Sigma-Aldrich) per well. […]

[3] = system: normal human embryonal lung fibroblast cells (MRC-5); assay: MTT antiproliferative assay; format: cell-based; settings: read-out: IC50 MRC-5 benign, mean
Protocol: as §2, §3, §4

[4] = system: multidrug-resistant Colo320 human colon adenocarcinoma cells; assay: MTT antiproliferative assay; format: cell-based; settings: for selectivity factor (SF) Colo320: IC50 MRC-5/IC50 Colo320; for IC50: MTT, 72 h
Protocol: as §2, §3, §4

[5] = Thermodynamic solubility, UV–vis of saturated solutions
Protocol: The concentration of the compounds was determined by UV–vis spectrophotometry using stock solutions of the compounds with a known concentration dissolved in pure DMSO and 50% (v/v) DMSO/buffered aqueous solution for the calibration.

[6] = Overall stability constants of copper(II) complexes by UV–vis titration; format: physicochemical; settings: 30–70% (w/w) DMSO–water, 298 K
Description: The tridentate coordination via the N,N,N donor set is assumed in [Cu(HL^1nm)]^2+ at such low pH. […] The deprotonation of the non-coordinating hydrazonic nitrogen is likely, and complex [Cu(L^1nm)]^+ is formed. […] However, the absorbance is decreased in the whole wavelength range due to precipitate formation. By the deconvolution of the recorded UV–vis spectra, overall stability constants for the complexes [Cu(HL^1nm)]^2+ and [Cu(L^1nm)]^+ were computed, and log β for [Cu(L^1nm)(OH)] was only estimated (Table 1). In the case of the morpholine hybrid, a somewhat different speciation was obtained as the presence of the pendant morpholine moiety had to be taken into consideration. Log β values for [CuH(HL^1)]^3+, [CuH(L^1)]^2+, and [Cu(L^1)]^+ were computed from the spectrophotometric titration data (Table 1). Since the molar absorbance spectra of [CuH(HL^1)]^3+ and [CuH(L^1)]^2+ complexes resemble those of [Cu(HL^1nm)]^2+ and [Cu(L^1nm)]^+ (Figure 4b), the same coordination modes are likely in these species in couples. […] Increasing the pH (pH > 5), the absorbance is decreased in the whole wavelength range, no isosbestic points are found (indicating the formation of some precipitate), while the λmax is increased. Formation of a mixed hydroxido species [CuH(L^1)(OH)]^+ is also possible. However, the deprotonation of the morpholinium group can take place as well (formation of [Cu(L^1)]^+) in this pH range. As these two processes are overlapping, the two species could not be well distinguished, and the obtained stability constant is quite uncertain.
as §1

[7] = system: Colo320 cells; assay: Apoptosis assay, Annexin-V-FITC/PI flow cytometry; settings: 3 h induction
Protocol: An apoptosis assay was performed by flow cytometry via the analysis of multidrug-resistant Colo320 cells stained with Annexin-V-FITC and propidium iodide (PI).
Colo320 cells were treated at the indicated concentration of the compounds. The dual parametric dot plots combining Annexin-V (FL1) and PI (FL3) fluorescence show the viable cell population in the lower left quadrant Annexin-V–/PI– (Q4), the early apoptotic cells in the lower right quadrant Annexin-V+/PI– (Q3), and the late apoptotic and necrotic cells in the upper right quadrant Annexin-V+/PI+ (Q2).
The assay was carried out for selected compounds using an Annexin V-FITC Apoptosis Detection Kit (cat. no. APOAF-50TST) from Sigma according to the manufacturer’s instructions. The concentration of the Colo320 cell suspension was adjusted to approximately 0.5 × 10^6 cells/mL in an RPMI 1640 medium, and the cell suspension was distributed in 1 mL of aliquots into a 24-well plate and then incubated overnight at 37 °C and 5% CO2. On the following day, the medium was removed and replaced by 1 mL of RPMI medium containing the compounds except the control samples. […] After the incubation period, the samples were washed with PBS and fresh RPMI 1640 medium was added to the samples. The cells were incubated overnight at 37 °C and 5% CO2. The next day, 200 μL of 0.25% Trypsin (Trypsin-Versen) was added to the samples until cells appeared detached followed by the addition of 400 μL of RPMI 1640 medium supplemented with 10% bovine serum. The cells were collected in Eppendorf tubes and centrifuged at 2000g for 2 min. The harvested cells were resuspended in fresh serum-free RPMI 1640 culture medium. After this step, the apoptosis assay was carried out according to the instructions of the manufacturer. The fluorescence was analyzed immediately using a ParTec CyFlow flow cytometer (Partec GmbH, Münster, Germany).
• Apoptosis and DNA binding studies […]

[8] = pH 5, 20 mM MES buffer, water, 298 K
[9] = pH 7.4, 20 mM HEPES, water, 298 K

SMILES: C(=NNC1=NCc2ccccc2-c2c1[nH]c1ccccc21)c1ccccn1.[Cl][Cu][Cl] [1nm]
- pKa [Cu(HL^1nm)]^2+ [1]: 4.32
- pKa [Cu(L^1nm)]^+ [1]: 7.09

SMILES: CC(=NNC1=NCc2ccccc2-c2c1[nH]c1ccc(Br)cc21)c1ccccn1.[Cl][Cu][Cl] [4nm]
- selectivity factor (SF) Colo205 [2]: 2.29
- IC50 [2]: 83 nM
- IC50 ([3]; 72 h): 190 nM
- selectivity factor (SF) Colo320 [4]: 0.54
- IC50 [4]: 350 nM

SMILES: C(=NNc1nc2ccccc2c2c1[nH]c1ccccc12)c1ccccn1.[Cl][Cu][Cl] [5nm]
- Thermodynamic solubility (S) [5, 8]: 134 µM
- Thermodynamic solubility (S) [5, 9]: 5.7 µM

SMILES: Brc1ccc2[nH]c3c(NN=Cc4ccccn4)nc4ccccc4c3c2c1.[Cl][Cu][Cl] [6nm]
- Thermodynamic solubility (S) [5, 8]: 8.9 µM
- Thermodynamic solubility (S) [5, 9]: 3.1 µM

- log β [Cu(HL^1nm)]^2+ ([6]; I = 0.10 M (KCl)): 8.33 and 8.33 ± 0.01
- log β [Cu(L^1nm)]^+ ([6]; I = 0.10 M (KCl)): 4.01 and 4.01 ± 0.01
- log β [Cu(L^1nm)(OH)] ([6]; only estimated): –3.1 ± 0.1
- pKa ([1]; read-out: pKa1): 2.32 ± 0.01
- pKa ([1]; read-out: pKa2): 4.75 ± 0.01
SMILES: C(=N\N=C1/NCc2ccccc2-c2c1[nH]c1ccccc21)/c1ccccn1 [HL^1nm]

- IC50 ([2]; Homo sapiens, COLO 205): 91 nM
- IC50 ([4]; Homo sapiens, COLO 320): 8190 nM
SMILES: C/C(=N\N=C1/NCc2ccccc2-c2c1[nH]c1ccc(Br)cc21)c1ccccn1 [HL^4nm]
- selectivity factor (SF) Colo205 [2]: 1.22
- IC50 ([3]; Homo sapiens, MRC5, 72 h): 111 nM
- selectivity factor (SF) Colo320 [4]: 0.01

- Thermodynamic solubility (S) [5, 8]: 1.1 µM
- Thermodynamic solubility (S) [5, 9]: 0.3 µM
SMILES: C(=NN=c1[nH]c2ccccc2c2c1[nH]c1ccccc12)c1ccccn1 [HL^5nm]

SMILES: c1ccc2c(c1)Nc1c(ccc3ccccc13)S2 [M627, 12H-benzo[α]phenothiazine, reference compound]
- Cell death % Q1 ([7]; 10 µM): 4.59%
- Early apoptosis % Q3 ([7]; 10 µM): 12.4%
- Late apoptosis and necrosis % Q2 ([7]; 10 µM): 31.5%
- Cell death % Q1 ([7]; 20 µM): 7.85%
- Early apoptosis % Q3 ([7]; 20 µM): 11.1%
- Late apoptosis and necrosis % Q2 ([7]; 20 µM): 26.1%

SMILES: Brc1ccc2[nH]c3c(NN=Cc4ccc(CN5CCOCC5)cn4)nc4ccccc4c3c2c1.[Cl][Cu][Cl] [compound 6, CuCl2(HL^6)·1.5H2O]
- selectivity factor (SF) Colo205 [2]: 0.20
- IC50 [2]: 1090 nM
- IC50 ([3]; 72 h): 221 nM
- selectivity factor (SF) Colo320 [4]: 0.26
- IC50 [4]: 851 nM
- Thermodynamic solubility (S) ([5]; pH 5): 6.6 µM
- Thermodynamic solubility (S) ([5]; pH 7.4): 0.4 µM

SMILES: CC(=NNc1nc2ccccc2c2c1[nH]c1ccccc12)c1ccc(CN2CCOCC2)cn1.[Cl][Cu][Cl] [compound 7, CuCl2(HL^7)·0.5H2O]
- selectivity factor (SF) Colo205 [2]: 6.65
- IC50 [2]: 98 nM
- IC50 ([3]; 72 h): 652 nM
- selectivity factor (SF) Colo320 [4]: 4.38
- IC50 [4]: 149 nM
- Thermodynamic solubility (S) ([5]; pH 5): 89.7 µM
- Thermodynamic solubility (S) ([5]; pH 7.4): 38.3 µM

- IC50 ([2]; Homo sapiens, COLO 205): 712 nM
- IC50 ([4]; Homo sapiens, COLO 320): 5430 nM
SMILES: COc1cccc2c1C(=O)c1c(O)c3c(c(O)c1C2=O)C[C@@](O)(C(=O)CO)C[C@@H]3O[C@H]1C[C@H](N)[C@H](O)[C@H](C)O1 [doxorubicin, reference compound]
- selectivity factor (SF) Colo205 [2]: 15.44
- IC50 ([3]; Homo sapiens, MRC5, 72 h): 11000 nM
- selectivity factor (SF) Colo320 [4]: 2.03
